In patent publication US8309734B2 (Hoffmann-La Roche Inc., priority 2008, dated 2012):

The compounds below were run against T1, human GPBAR1 receptor (Homo sapiens, UniProt Q8TDU6) (assay: functional cAMP assay in CHO-dhfr(minus) cells expressing human GPBAR1 receptors). Settings: cAMP increase (TR-FRET) in CHO-dhfr(minus) cells expressing human GPBAR1; compounds incubated 30 min at 30° C.
T1 construct: expressed in transfected cells
T1 sequence (Q8TDU6 1-330): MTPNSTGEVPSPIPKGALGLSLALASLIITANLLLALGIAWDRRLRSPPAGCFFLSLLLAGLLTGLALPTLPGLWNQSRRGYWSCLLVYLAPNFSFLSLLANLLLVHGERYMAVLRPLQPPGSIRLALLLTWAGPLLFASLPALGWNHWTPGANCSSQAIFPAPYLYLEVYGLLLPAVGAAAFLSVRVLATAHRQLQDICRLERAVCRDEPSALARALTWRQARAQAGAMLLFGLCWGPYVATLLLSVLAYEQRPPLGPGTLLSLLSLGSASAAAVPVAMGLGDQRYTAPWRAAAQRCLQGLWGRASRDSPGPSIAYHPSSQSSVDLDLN
Assay type: cell-based

| SMILES | EC50 [nM] |
| --- | --- |
| O=C(c1cc(F)ccc1Oc1cc(Cl)ccc1Cl)N1CCOc2ccccc21 [Example 117, [2-(2,5-Dichloro-phenoxy)-5-fluoro-phenyl]-(2,3-dihydro-benzo[1,4]oxazin-4-yl)-methanone] | 572 |
| CN(C(=O)c1cc(F)ccc1Oc1cc(Cl)ccc1Cl)c1ccccc1 [Example 118, 2-(2,5-Dichloro-phenoxy)-5-fluoro-N-methyl-N-phenyl-benzamide] | 771 |
| N#Cc1ccc(Oc2cc(Cl)ccc2Cl)c(C(=O)N2CCCc3ccccc32)c1 [Example 119, 4-(2,5-Dichloro-phenoxy)-3-(3,4-dihydro-2H-quinoline-1-carbonyl)-benzo nitrile] | 165 |
| Cc1cc(F)c2c(c1)CCCN2C(=O)c1ccccc1Oc1cc(Cl)ccc1Cl [Example 120, [2-(2,5-Dichloro-phenoxy)-phenyl]-(8-fluoro-6-methyl-3,4-dihydro-2H-quinolin-1-yl)-methanone] | 1650 |
| O=C(c1ccccc1Oc1cc(Cl)ccc1Cl)N1CCCc2cc(F)cc(F)c21 [Example 121, [2-(2,5-Dichloro-phenoxy)-phenyl]-(6,8-difluoro-3,4-dihydro-2H-quinolin-1-yl)-methanone] | 231 |
| O=C(c1cccnc1Oc1cc(Cl)ccc1Cl)N1CCNc2ccccc21 [Example 122, [2-(2,5-Dichloro-phenoxy)-pyridin-3-yl]-(3,4-dihydro-2H-quinoxalin-1-yl)-methanone] | 62 |
| CC(C)N1CCN(C(=O)c2cccnc2Oc2cc(Cl)ccc2Cl)c2ccccc21 [Example 124, [2-(2,5-Dichloro-phenoxy)-pyridin-3-yl]-(4-isopropyl-3,4-dihydro-2H-quinoxalin-1-yl)-methanone] | 607 |
| O=C(c1cccnc1Oc1cc(Cl)ccc1Cl)N1CCN(C2CC2)c2ccccc21 [Example 125, (4-Cyclopropyl-3,4-dihydro-2H-quinoxalin-1-yl)-[2-(2,5-dichloro-phenoxy)-pyridin-3-yl]-methanone] | 4 |
| O=C(c1cccnc1Oc1cc(Cl)ccc1Cl)N1CCN(C2CCC2)c2ccccc21 [Example 126, (4-Cyclobutyl-3,4-dihydro-2H-quinoxalin-1-yl)-[2-(2,5-dichloro-phenoxy)-pyridin-3-yl]-methanone] | 10 |
| O=C(c1cccnc1Oc1cc(Cl)ccc1Cl)N1CCN(C2COC2)c2ccccc21 [Example 127, [2-(2,5-Dichloro-phenoxy)-pyridin-3-yl]-(4-oxetan-3-yl-3,4-dihydro-2H-quinoxalin-1-yl)-methanone] | 14 |
| O=C1CCN(C(=O)c2cccnc2Oc2cc(Cl)ccc2Cl)c2ccccc21 [Example 128, 1-[2-(2,5-Dichloro-phenoxy)-pyridine-3-carbonyl]-2,3-dihydro-1H-quinolin-4-one] | 918 |
| C=C1CCN(C(=O)c2cccnc2Oc2cc(Cl)ccc2Cl)c2ccccc21 [Example 129, [2-(2,5-Dichloro-phenoxy)-pyridin-3-yl]-(4-methylene-3,4-dihydro-2H-quinolin-1-yl)-methanone] | 24 |
| O=C(c1cccnc1Oc1cc(Cl)ccc1Cl)N1CCC(N2CC(F)(F)C2)c2ccccc21 (stereo not shown) [Example 130, [2-(2,5-Dichloro-phenoxy)-pyridin-3-yl]-[4-(3,3-difluoro-azetidin-1-yl)-3,4-dihydro-2H-quinolin-1-yl]-methanone] | 1830 |
| CN(C(=O)c1cccnc1Oc1cc(Cl)ccc1Cl)c1ccccc1C1CC1 [Example 131, N-(2-Cyclopropyl-phenyl)-2-(2,5-dichloro-phenoxy)-N-methyl-nicotinamide] | 321 |
| CSc1ccccc1N(C)C(=O)c1cccnc1Oc1cc(Cl)ccc1Cl [Example 132, 2-(2,5-Dichloro-phenoxy)-N-methyl-N-(2-methylsulfanyl-phenyl)-nicotinamide] | 66 |
| CN(C(=O)c1cccnc1Oc1cc(Cl)ccc1Cl)c1ccccc1-c1ccnn1C [Example 133, 2-(2,5-Dichloro-phenoxy)-N-methyl-N-[2-(2-methyl-2H-pyrazol-3-yl)-phenyl]-nicotinamide] | 1970 |
| CN(C(=O)c1cccnc1Oc1cc(Cl)ccc1Cl)c1ccccc1N [Example 134, N-(2-Amino-phenyl)-2-(2,5-dichloro-phenoxy)-N-methyl-nicotinamide] | 1650 |
| CN(C(=O)c1cccnc1Oc1cc(Cl)ccc1Cl)c1cc(Cl)ccc1Cl [Example 135, 2-(2,5-Dichloro-phenoxy)-N-(2,5-dichloro-phenyl)-N-methyl-nicotinamide] | 473 |
| O=C(c1cccnc1Oc1cc(Cl)ccc1Cl)N1CC2CCCN2c2ccccc21 (stereo not shown) [Example 136, [2-(2,5-Dichloro-phenoxy)-pyridin-3-yl]-(2,3,3a,4-tetrahydro-1H-pyrrolo[1,2-a]quinoxalin-5-yl)-methanone] | 246 |

| SMILES | EC50 [nM] |
| --- | --- |
| CC(C)CN1CCN(C(=O)c2cccnc2Oc2cc(Cl)ccc2Cl)c2ccccc21 [Example 137, [2-(2,5-Dichloro-phenoxy)-pyridin-3-yl]-(4-isobutyl-3,4-dihydro-2H-quinoxalin-1-yl)-methanone] | 201 |
| O=C(c1cccnc1Oc1cc(Cl)ccc1Cl)N1CCN(CC2CC2)c2ccccc21 [Example 138, (4-Cyclopropylmethyl-3,4-dihydro-2H-quinoxalin-1-yl)-[2-(2,5-dichloro-phenoxy)-pyridin-3-yl]-methanone] | 35 |
| O=C(c1cccnc1Oc1cc(Cl)ccc1Cl)N1CCN(CC2CCC2)c2ccccc21 [Example 139, (4-Cyclobutylmethyl-3,4-dihydro-2H-quinoxalin-1-yl)-[2-(2,5-dichloro-phenoxy)-pyridin-3-yl]-methasone] | 926 |
| CC(=O)OCCN1CCN(C(=O)c2cccnc2Oc2cc(Cl)ccc2Cl)c2ccccc21 [Example 140, Acetic acid 2-{4-[2-(2,5-dichloro-phenoxy)-pyridine-3-carbonyl]-3,4-dihydro-2H-quinoxalin-1-yl}-ethyl ester] | 259 |
| CCOC(=O)CN1CCN(C(=O)c2cccnc2Oc2cc(Cl)ccc2Cl)c2ccccc21 [Example 141, {4-[2-(2,5-Dichloro-phenoxy)-pyridine-3-carbonyl]-3,4-dihydro-2H-quinoxalin-1-yl}-acetic acid ethyl ester] | 324 |
| O=C(O)CN1CCN(C(=O)c2cccnc2Oc2cc(Cl)ccc2Cl)c2ccccc21 [Example 142, {4-[2-(2,5-Dichloro-phenoxy)-pyridine-3-carbonyl]-3,4-dihydro-2H-quinoxalin-1-yl}-acetic acid] | 307 |
| O=C(O)CCc1ccc(S(=O)(=O)N2CCN(C(=O)c3cccnc3Oc3cc(Cl)ccc3Cl)c3ccccc32)cc1 [Example 143, 3-(4-{4-[2-(2,5-Dichloro-phenoxy)-pyridine-3-carbonyl]-3,4-dihydro-2H-quinoxaline-1-sulfonyl}-phenyl)-propionic acid] | 745 |
| O=C(c1cccnc1Oc1cc(C(F)(F)F)ccc1F)N1CCCc2ccccc21 [Example 144, (3,4-Dihydro-2H-quinolin-1-yl)-[2-(2-fluoro-5-trifluoromethyl-phenoxy)-pyridin-3-yl]-methanone] | 286 |
| COc1ncccc1N(C)C(=O)c1cc(F)cnc1Oc1cc(Cl)ccc1Cl [Example 145, 2-(2,5-Dichloro-phenoxy)-5-fluoro-N-(2-methoxy-pyridin-3-yl)-N-methyl-nicotinamide] | 29 |
| COc1ccc(Cl)c(N(C)C(=O)c2cc(F)cnc2Oc2cc(Cl)ccc2Cl)c1Cl [Example 146, N-(2,6-Dichloro-3-methoxy-phenyl)-2-(2,5-dichloro-phenoxy)-5-fluoro-N-methyl-nicotinamide] | 1970 |
| O=C(c1cc(F)cnc1Oc1cc(Cl)ccc1Cl)N1CCNc2ccccc21 [Example 147, [2-(2,5-Dichloro-phenoxy)-5-fluoro-pyridin-3-yl]-(3,4-dihydro-2H-quinoxalin-1-yl)-methanone] | 15 |
| COC(=O)C1CCN(C(=O)c2cc(F)cnc2Oc2cc(Cl)ccc2Cl)c2ccccc21 (stereo not shown) [Example 148, 1-[2-(2,5-Dichloro-phenoxy)-5-fluoro-pyridine-3-carbonyl]-1,2,3,4-tetrahydro-quinoline-4-carboxylic acid methyl ester] | 1960 |
| O=C(c1cc(F)cnc1Oc1cc(Cl)ccc1Cl)N1Cc2cccn2-c2ccccc21 [Example 149] | 155 |
| O=C(c1cc(F)cnc1Oc1cc(Cl)ccc1Cl)N1CCN(C2CCC2)c2ccccc21 [Example 150, (4-Cyclobutyl-3,4-dihydro-2H-quinoxalin-1-yl)-[2-(2,5-dichloro-phenoxy)-5-fluoro-pyridin-3-yl]-methanone] | 58 |
| O=C(c1cc(F)cnc1Oc1cc(Cl)ccc1Cl)N1CCN(Cc2ccoc2)c2ccccc21 [Example 151, [2-(2,5-Dichloro-phenoxy)-5-fluoro-pyridin-3-yl]-(4-furan-3-ylmethyl-3,4-dihydro-2H-quinoxalin-1-yl)-methanone] | 1070 |
| O=C(c1cc(F)cnc1Oc1cc(Cl)ccc1Cl)N1CCN(CC2CCC2)c2ccccc21 [Example 152, (4-Cyclobutylmethyl-3,4-dihydro-2H-quinoxalin-1-yl)-[2-(2,5-dichloro-phenoxy)-5-fluoro-pyridin-3-yl]-methanone] | 689 |
| O=C(c1cc(F)cnc1Oc1cc(Cl)ccc1Cl)N1CCN(CCC(F)(F)F)c2ccccc21 [Example 153, [2-(2,5-Dichloro-phenoxy)-5-fluoro-pyridin-3-yl]-[4-(3,3,3-trifluoro-propyl)-3,4-dihydro-2H-quinoxalin-1-yl]-methanone] | 565 |
| CCOC(=O)CN1CCN(C(=O)c2cc(F)cnc2Oc2cc(Cl)ccc2Cl)c2ccccc21 [Example 154, {4-[2-(2,5-Dichloro-phenoxy)-5-fluoro-pyridine-3-carbonyl]-3,4-dihydro-2H-quinoxalin-1-yl}-acetic acid ethyl ester] | 53 |
